The values below come from a melting point compilation (Tetko et al.; mined from patent text by program, amines drawn as free bases though some values may be those of a salt).

Molecules are shown by their SMILES.

With `CCCOc1cc(-c2c(C(=O)OCC)c(CCl)nc3cc(OC)c(OC)cc23)ccc1OC`, the melting point (in general, the temperature of the solid-liquid transition) was in the range of 126 to 128 °C.

For the compound `CCOCc1nc2c(N)nc3cccnc3c2n1CC1(O)CCC1`, the melting point was 162 to 163 °C.

On to `COc1ccc2nc(Oc3c(Cl)cc(NS(=O)(=O)c4ccc(C(F)(F)F)cc4Cl)cc3Cl)sc2c1`, for which the melting point was 164 to 165 °C.

Take `COc1ccc(CNc2nc(N3CCC[C@H]3CO)cnc2C(=O)O)cc1Cl`: the melting point fell in the range of 169 to 171 °C.

`Nc1cccc(-c2ccccc2O)c1` gave a melting point of 158 to 161 °C.

On to `Cc1cc(-c2cnn3c(C(F)(F)F)cc(-c4ccc(OCC(F)(F)F)c(C(F)(F)F)c4)nc23)cc(C)n1`, for which the melting point came to 229 °C.

In turn, `Cc1n[nH]c(C)c1C(=O)Nc1ccccc1` had a melting point of 244 to 245 °C.

Compound `CC(=O)OCC1OC(OS(=O)(=S)c2ccccc2)C(OC(C)=O)C(OC(C)=O)C1OC(C)=O` (stereo unspecified) had a melting point of 53 to 54 °C.

`OC(=S)CCc1ccccc1` gave a melting point of 60 °C.

As for `COC(=O)CC(NCCCN(C)C)C(=O)O` (stereo unspecified), the melting point was 171 to 172 °C.

`COc1ccc(OC)c(-c2cccc(-n3cnc(-c4nc(C)no4)c3)c2)c1`: the melting point was in the range of 127 to 129 °C.

`CN1C(=O)C(C)(C)C(=O)N(C)c2cc(Br)ccc21` returned a melting point of 194 to 195 °C.

The compound `Fc1cccc2sc(C3=CCNCC3)cc12` registered a melting point of 83 to 86 °C.

`ClCSc1n[nH]c(C(c2ccccc2)(c2ccccc2)c2ccccc2)n1`: the melting point lay in the range of 121 to 122 °C.

As for `CCC1(CCCCN2CCc3sccc3C2)C(=O)Nc2cc(F)c(Cl)cc21` (stereo unspecified), the melting point lay within 155 to 157 °C.

The compound `CCOC(=O)c1ncc2[nH]c3ccc(N)cc3c2n1` had a melting point of 256 to 258 °C.

With `CCOc1ccc2[nH]c(=O)n(C3Cc4ccccc4C3)c2c1`, the melting point was 151 °C.

Turning to `CC1NC(=O)NN=C1c1ccc(Cl)c(N)c1` (stereo unspecified), the melting point lay in the range of 226 to 228 °C.

As for `Cn1cc(C2=C(c3cn(C)c4ccc(O)cc34)C(=O)NC2=O)c2ccccc21`, the melting point lay in the range of 284 to 287 °C.

For `Cc1nc(Nc2ccccc2)sc1C(=O)c1sc(Nc2ccccc2)nc1C`, the melting point is 194 to 196 °C.

Regarding `Nc1ccc(Nc2c(NCC3CCCO3)cc(C(=O)O)cc2S(N)(=O)=O)cc1` (stereo unspecified), the melting point was determined as 253 °C.

The compound `O=c1[nH]c2cc(Cl)cc(Cl)c2c(O)c1Sc1ccc(OCc2ccccc2)cc1` had a melting point of 224 to 227 °C.

Compound `CCn1nc(Cl)c(CS(=O)(=O)C2=NOC(C)(C)C2)c1Cl` displayed a melting point of 105 to 107 °C.

`Cc1ccc(C(O)(Cn2ccnc2)C(C)(C)C)cc1` (stereo unspecified) had a melting point of 135 to 137 °C.

For the compound `CCOc1nn(-c2ccc(C(F)(F)F)cn2)cc1CCOc1ccc(CCC(=O)O)c(OC)c1`, the melting point lay within 147 to 148 °C.

`Cc1cccc(N2CC(=O)N(C)C(=O)N2)c1`: the melting point lay in the range of 173 to 175 °C.

With `Cc1ccc(S(=O)(=O)OCCc2cc3c4ccccc4[nH]c(=O)n3n2)cc1`, the melting point lay in the range of 194 to 196 °C.

In turn, `Nc1nc2ccc(Cl)cc2nc1N` registered a melting point of 290 °C.

As for `Nc1sc2c(c1Cc1cccs1)CCN(Cc1ccccc1)C2`, the melting point is 122 to 123 °C.

As for `CCCCCCCCCCCCCCOc1ccc(CNc2ccc(CO)cc2)cc1`, the melting point lay within 85 to 87 °C.

The compound `COCc1nc2c(N)nc3cc(CCS(C)(=O)=O)ccc3c2n1CC(C)(C)O` registered a melting point of 210 to 212 °C.

In turn, `O=c1c(Cl)c(Cl)cnn1-c1ccc(Cl)cc1F` showed a melting point of 158 °C.

The compound `CC1c2cccc3c2N(CC3)c2ccccc2N1C(=O)CBr` (stereo unspecified) displayed a melting point of 123 to 125 °C.

Compound `Cn1ccc(-c2ccc3c(ccn3-c3ccc(F)cc3)c2)n1` gave a melting point of 123 to 125 °C.

Consider `O=c1[nH]c2sccc2c(=O)o1`, for which the melting point was 233 °C.

Regarding `CCN(CC)C(=O)N(C)C(=O)Nc1ccccc1`, the melting point is 88 to 89.5 °C.

`CC(C)(C)NC(=O)Oc1ccc(-c2nn(C3CCCC3)c3c(F)cccc23)cc1` gave a melting point of 157 °C.

`CCOC(=O)C(=C1NCCCS1)[N+](=O)[O-]`: the melting point was 100 to 102 °C.

The compound `CN1CCC(=O)C(=C2SC=CS2)C1=O` had a melting point of 148 to 153 °C.

As for `COC(=O)C(Cc1cc(OC)cc(OC)c1)c1ccc(O)cc1` (stereo unspecified), the melting point was in the range of 63 to 65 °C.

With `C=C1C(=O)NC(=O)N1c1ccccc1`, the melting point was in the range of 168 to 170 °C.

Turning to `CN1CCOc2ccc(N)cc2C1=O`, the melting point was found to be 165 °C.

In turn, `Cc1cccc(C)c1Nc1c(-c2c(Cl)cccc2OCC(N)=O)nc2ccc(F)cn12` had a melting point of 186 to 187 °C.

`CC[Si](C#CC1(CO)OC(n2ccc(=O)[nH]c2=O)C(O)C1O)(CC)CC` (stereo unspecified): the melting point was 183 to 186 °C.

In the case of `CCCCC(=N)NC(=O)Nc1ccc(Cl)c(Cl)c1`, the melting point lay within 177 to 179 °C.

Turning to `CCOc1ccc(-c2nc(C3=CCN(C)CC3)cs2)cc1OCC`, the melting point lay in the range of 81.2 to 83.6 °C.

`Fc1ccc(Nc2c3ccccc3nc3ccccc23)cc1` came in with a melting point of 184 to 196 °C.

In turn, `COC(=O)C1=C(C)NC(C)=C(C(=O)OCCN2CCN(C(c3ccc(Cl)cc3)c3ccc(Cl)cc3)CC2)C1c1cccc([N+](=O)[O-])c1` (stereo unspecified) displayed a melting point of 83 to 87 °C.

Take `CC(=O)OC1CSC(Oc2cccnc2Br)C(OC(C)=O)C1OC(C)=O` (stereo unspecified): the melting point is 161 °C.

For `c1csc(-c2ccc(-c3cc4ncnc(Nc5ccc6[nH]ccc6c5)c4s3)cc2)c1`, the melting point was in the range of 165 to 178 °C.

`CC(C)(C)C1C(=O)NN=C2CCCCC21` (stereo unspecified) yielded a melting point of 161 to 164 °C.

In turn, `O=C1C(=Cc2cccs2)CCc2cc(OCCn3ccnc3)ccc21` had a melting point of 137 to 138 °C.

As to `COC(=O)c1nc(C)n2c1CNC(c1ccccc1)c1cc(Cl)ccc1-2` (stereo unspecified), the melting point was 233 to 235 °C.

`NC(=O)C1(O)c2ccccc2S(=O)(=O)N1Cc1ccc(Br)cc1F` (stereo unspecified) returned a melting point of 182 to 184 °C.

`Clc1cc(-c2ccccc2)nc2sccc12` displayed a melting point of 83 to 85 °C.

In turn, `CCCCCCCCCCCCc1nc(NC(=O)Nc2c(C(C)C)cccc2C(C)C)n[nH]1` displayed a melting point of 154 to 164 °C.

`CC(C)Oc1cc(COc2cc(CCC(=O)O)n(C)n2)cc(COc2ccc(Cl)cc2Cl)c1`: the melting point lay within 105 to 106 °C.

With `COCCC(=O)OC[C@@H](O)[C@@H]1CC(c2ccc(-c3ccc(N4C[C@H](Cn5ccnn5)OC4=O)cc3F)cn2)=NO1`, the melting point stood at 130 °C.

Consider `CCCCCCCCCCCCc1cc2ccc(C(=O)OCC)cc2[nH]1`, for which the melting point is 83 to 86 °C.

As to `CC(C)(C)SC1CC(=O)N1CC(=O)CCc1ccccc1` (stereo unspecified), the melting point stood at 65 °C.

With `CCOC(=O)c1cc([N+](=O)[O-])ccc1OCc1ccc2ccccc2n1`, the melting point fell in the range of 139 to 140 °C.

Compound `CC(C)(C)c1cc(NC(=O)Nc2ccccc2C(=O)NC2CCN(C(c3ccccc3)c3ccccc3)CC2)cc(C(C)(C)C)c1O` registered a melting point of 218 to 225 °C.

Compound `CC(N)c1nc2cccc(Cl)c2c(=O)n1-c1cc(F)cc(F)c1` (stereo unspecified) yielded a melting point of 200 to 202 °C.

Compound `COCOc1ccc(C(C(c2ccccc2)c2ccc(F)cc2)C(F)(F)F)cc1` (stereo unspecified) yielded a melting point of 85 to 88 °C.

`ClC(=NNc1ccccc1)c1ccc(Cl)c(Cl)c1`: the melting point was 121 to 124 °C.

Take `O=C(O)C1=Cc2cc3c(cc2OC1C(F)(F)F)OCO3` (stereo unspecified): the melting point lay within 246 to 248 °C.

Compound `c1ccc(N2CCN(c3nn(-c4ccccc4)c4ccccc34)CC2)cc1` came in with a melting point of 129 to 130 °C.

The compound `CON1CCC(=Cc2cc(C(C)(C)C)c(O)c(C(C)(C)C)c2)C1=O` displayed a melting point of 169 °C.

`CCC1SC(=O)N(Cc2ccc(N)cc2)N=C1c1ccc(OC)c(OC)c1` (stereo unspecified) showed a melting point of 105 °C.

As to `COc1ccc2c(=O)c(-c3ccc(C)cc3)c(SCc3ccncc3)oc2c1`, the melting point fell in the range of 157 to 160 °C.

`CCCCc1nc2cccc(C(=O)O)c2n1Cc1ccc(-c2ccccc2-c2n[nH]c(=O)o2)cc1` returned a melting point of 204 to 205 °C.

Consider `O=S1(=O)N(CCCCBr)c2ccccc2N1c1ccc(Cl)cc1`, for which the melting point lay in the range of 65 to 68 °C.

Regarding `O=c1cc(-c2cccnc2)oc2ccccc12`, the melting point is 123 to 124 °C.

`O=C1CC2(C(=O)N1)C(=O)N(Cc1ccc(Cl)c(Cl)c1)c1ccccc12` (stereo unspecified) returned a melting point of 205 to 207 °C.

Turning to `O=C(c1ccccc1C(c1ccc(O)cc1)c1ccc(O)cc1)N1CC2CCC(CC2)C1`, the melting point is 164 to 166 °C.

Turning to `CCCCCc1ccc(CCC2CCC(C#N)CC2)cc1` (stereo unspecified), the melting point worked out at 22.4 °C.

Take `Clc1ccc2nc(-c3cccnc3)[nH]c2c1`: the melting point is 244 to 246 °C.

In turn, `CCCCCCCCCCCCCc1c[nH]c(C(=O)OCC)c1` had a melting point of 59 to 60 °C.

In the case of `CCCC12CCC(=O)C=C1c1c(cc(OCC3=NCCN3)c(Cl)c1Cl)C2` (stereo unspecified), the melting point is 152 to 154 °C.

`Cc1cc(-c2cc(O)c(Cl)cc2F)c(=O)n(C)c1C(F)(F)F` gave a melting point of 207 to 208 °C.

Compound `CCCCCCCC/C=C\CCCCCCCC(=O)Nc1nc(CC(=O)O)cs1` gave a melting point of 106 to 108 °C.

`Cc1cc2[nH]c(=O)c(=O)[nH]c2cc1C`: the melting point was over 250 °C.

Take `CCC(CC)Nc1cc(C)nc(Sc2c(C)cc(C)cc2C)c1C`: the melting point fell in the range of 108 to 110 °C.

Compound `CN1CCC(=C2c3ccccc3CCn3ncnc32)CC1` displayed a melting point of 127 °C.

`CC(=O)N(C)c1cccc(-c2ccnc3c(C(=O)c4ccco4)cnn23)c1` gave a melting point of 210 to 212 °C.

Regarding `CCCN(c1ccncc1)N1C(=O)C(C)(C)c2ccccc21`, the melting point lay in the range of 125 to 127 °C.

`N#Cc1ccc(Nc2nc(Cl)ccc2[N+](=O)[O-])cc1` returned a melting point of 175 to 178 °C.

Compound `CSc1ccc2cc(Cc3ccccc3)cc(CCNC(C)=O)c2c1` registered a melting point of 126 to 128 °C.

Compound `O=C(NCc1ccccc1Cl)c1cccnc1Oc1ccc(F)cc1F` came in with a melting point of 122 to 124 °C.

The compound `O=C(c1ccc(O)cc1)c1ccc(OCCO)cc1` returned a melting point of 146 to 147 °C.

For the compound `CSC(=S)C1(c2ccncc2)CCCS1` (stereo unspecified), the melting point was found to be 64 °C.
